Data published in patent US20130317068A1, “SUBSTITUTED 1,2,4-TRIAZOLE COMPOUNDS AS A SEED TREATMENT TO CONTROL PESTS” (Dow Agrosciences LLC, priority 2012, published 2013).

Assays:
[1] = system: Aphis gossypii (cotton aphid); assay: Insecticidal activity on cotton aphid, solutions applied to cabbage leaf surface then infested; type: in vivo; settings: for mortality at 50 ppm / mortality at 200 ppm: Aphis gossypii; for mortality at 200 ppm: Rate 200 PPM solution
Protocol: (§1) Different substituted 1,2,4-triazole compounds of the present disclosure were tested for insecticidal activity on Aphis gossypii (cotton aphid) and Myzus persicae (green peach aphid). The different substituted 1,2,4-triazole compounds were formulated as either 200 PPM solutions or 50 PPM solutions. The 200 PPM solutions or 50 PPM solutions of the different substituted 1,2,4-triazole compounds were applied to a cabbage leaf surface and the resulting samples were subjected to an infestation of Aphis gossypii and Myzus persicae.
(§2) In Table 1, “ND” means mortality data was not determined at this rate.

[2] = system: Myzus persicae (green peach aphid); assay: Insecticidal activity on green peach aphid, solutions applied to cabbage leaf surface then infested; type: in vivo; settings: for mortality at 50 ppm: Rate 50 PPM solution; for mortality at 200 ppm: Rate 200 PPM solution
Protocol: as §1, §2

Row | Structure (SMILES) | Average % mortality, Cotton Aphid ([1]; Rate 50 PPM solution) [%] | mortality at 50 ppm [2] [%] | mortality at 200 ppm [2] [%] | mortality at 50 ppm ([1]; Rate 50 PPM solution) [%] | mortality at 200 ppm [1] [%]
1 | Cn1nc(-c2c(F)cccc2F)nc1C1(C)CC1(Cl)Cl (stereo not drawn) [drawing 12] | 95 | – | – | – | –
2 | Cn1nc(-c2c(Cl)cncc2Cl)nc1-c1ccc(C(F)(F)F)cc1 | – | 79 | 87 | 88 | –
3 | Cn1nc(-c2c(F)cccc2Cl)nc1-c1sc(Cl)c(Cl)c1Cl | – | 81 | – | 32 | 99
4 | Cc1cc(-c2ccc(OC(F)(F)C(F)Cl)cc2)sc1-c1nc(-c2c(F)cccc2Cl)nn1C (stereo not drawn) | – | 75 | – | 66 | –
5 | Cc1c(Br)csc1-c1nc(-c2c(F)cccc2Cl)nn1C | – | 87 | 63 | 96 | 100
6 | Cn1nc(-c2c(F)cccc2F)nc1C1(C)CC1(Cl)Cl (stereo not drawn) [drawing 11] | – | 13 | 81 | 90 | –
7 | Cc1c(-c2nc(-c3c(F)cccc3Cl)nn2C)csc1-c1ccc(OC(F)(F)C(F)Cl)cc1 (stereo not drawn) | – | 73 | – | 84 | –
